# According to USRE48097E1, “Cephem compounds, their production and use” (priority 2015, dated 2020):
# Like-named read-outs stand apart in the source and are kept apart here.
# What was measured:
# Assay type in all cases: cell-based
# [1] = tested on: S. pneumoniae ATCC 700673; assay: MIC against S. pneumoniae ATCC 700673; conditions: Table 2, S. pneumoniae ATCC 700673, Pen R
# Description: (§1) Without limitation, the present cephem compounds alone, or in combination with one or more β-lactamase inhibitors, may provide improved antibacterial efficacy, particularly in antibiotic-resistant bacterial strains. It is believed that the present compounds may be structurally different from known compounds and, as a result, may be more basic in nature. It is an advantage that the present compounds may extend the spectrum of effective bacterial compounds, particularly against previously-resistant bacteria (e.g. ESKAPE organisms), and/or gram negative bacteria, without significant side effects. In a preferred embodiment, the present cephem compound may comprise reference compound ceftazidime, which may be used alone, or in combination with one or more β-lactamase inhibitors, such as NXL-104. As shown, the foregoing composition was tested for minimum inhibitory concentration (MIC, μg/mL) against bacteria listed in Tables 2-3.
# S. pneumoniae 2392 = assay: MIC against S. pneumoniae 2392; conditions: Table 2, S. pneumoniae 2392, Pen R
# Description: as §1
# S. pneumoniae 2407 = assay: MIC against S. pneumoniae 2407; conditions: Table 2, S. pneumoniae 2407, Pen S
# Description: as §1
# S. aureus 3132 = assay: MIC against S. aureus 3132; conditions: Table 2, S. aureus 3132, MSSA
# Description: as §1
# S. pneumoniae 2406 = assay: MIC against S. pneumoniae 2406; conditions: Table 2, S. pneumoniae 2406, Pen S
# Description: as §1
# E. cloacae 2044 = assay: MIC against E. cloacae 2044; conditions: Table 2, E. cloacae 2044, Caz S, IMP S
# Description: as §1
# E. coli 102 = assay: MIC against E. coli 102; conditions: Table 2, E. coli 102, TEM-1
# Description: as §1
# E. cloacae 2709 = assay: MIC against E. cloacae 2709; conditions: Table 3, E. cloacae 2709, KPC-3, VIM-1
# Experimental: (§2) As shown, the foregoing composition was tested for minimum inhibitory concentration (MIC, μg/mL) against bacteria listed in Tables 2-3.
# K. pneumoniae 4106 = assay: MIC against K. pneumoniae 4106; conditions: K. pneumoniae 4106, KPC-3, TEM-1, SHV-12, SHV-141
# Experimental: as §2
# K. pneumoniae 4109 = assay: MIC against K. pneumoniae 4109; conditions: Table 2, K. pneumoniae 4109, SHV-1, SHV-12
# Description: as §1
# E. cloacae 2704 = assay: MIC against E. cloacae 2704; conditions: Table 2, E. cloacae 2704, P99
# Description: as §1
# S. pneumoniae 2493 = assay: MIC against S. pneumoniae 2493; conditions: Table 2, S. pneumoniae 2493, Pen R
# Description: as §1
# K. pneumoniae 2713 = assay: MIC against K. pneumoniae 2713; conditions: Table 3, K. pneumoniae 2713, KPC-3, VIM-1
# Experimental: as §2
# E. cloacae 551 = assay: MIC against E. cloacae 551; conditions: Table 2, E. cloacae 551, Caz R, IMP S
# Description: as §1
# [2] = Table 2, in combination with NXL-104
# [3] = Table 3, in combination with NXL-104
# [4] = Streptococcus pneumoniae, ATCC700673, alone, read-out: MIC
# [5] = Streptococcus pneumoniae, alone, read-out: MIC
# [6] = Enterobacter cloacae, alone, read-out: MIC
# [7] = Escherichia coli, alone, read-out: MIC
# [8] = Klebsiella pneumoniae, 4106, Table 2, alone, read-out: MIC
# [9] = Klebsiella pneumoniae, 4106, Table 3, alone, read-out: MIC
# [10] = Klebsiella pneumoniae, alone, read-out: MIC
Structure (SMILES),MIC ([1]; in combination with NXL-104) [µg/mL],MIC (S. pneumoniae 2392; in combination with NXL-104) [µg/mL],MIC (S. pneumoniae 2407; in combination with NXL-104) [µg/mL],MIC (S. aureus 3132; in combination with NXL-104) [µg/mL],MIC (S. pneumoniae 2406; in combination with NXL-104) [µg/mL],MIC (E. cloacae 2044; in combination with NXL-104) [µg/mL],MIC (E. coli 102; in combination with NXL-104) [µg/mL],MIC (E. cloacae 2709; in combination with NXL-104) [µg/mL],MIC (K. pneumoniae 4106; [2]) [µg/mL],MIC (K. pneumoniae 4106; [3]) [µg/mL],MIC (K. pneumoniae 4109; in combination with NXL-104) [µg/mL],MIC (E. cloacae 2704; in combination with NXL-104) [µg/mL],MIC (S. pneumoniae 2493; in combination with NXL-104) [µg/mL],MIC (K. pneumoniae 2713; in combination with NXL-104) [µg/mL],MIC (E. cloacae 551; in combination with NXL-104) [µg/mL],"MIC [1, 4] [µg/mL]",MIC (S. pneumoniae 2392; [5]) [µg/mL],MIC (S. pneumoniae 2407; [5]) [µg/mL],MIC (S. pneumoniae 2406; [5]) [µg/mL],MIC (E. cloacae 2044; [6]) [µg/mL],other results
"CC(C)(O/N=C(\C(=O)N[C@@H]1C(=O)N2C(C(=O)[O-])=C(C[n+]3ccccc3)CS[C@H]12)c1csc(N)n1)C(=O)O [CAZ, ceftazidime, reference compound]",8.00,16.00,32.00,8.00,0.12,0.25,0.12,8,4.00,8,0.50,4.00,16.00,8,4.00,,,,,,"MIC ([1]; alone): 16.00 µg/mL; MIC (S. pneumoniae 2392; alone): 16.00 µg/mL; MIC (S. pneumoniae 2407; alone): 4.00 µg/mL; MIC (S. aureus 3132; alone): 8.00 µg/mL; MIC (S. pneumoniae 2406; alone): 0.12 µg/mL; MIC (E. cloacae 2044; alone): 1.00 µg/mL; MIC (E. coli 102; alone): 0.12 µg/mL; MIC (E. cloacae 2709; alone): >32 µg/mL; MIC (K. pneumoniae 4106; Table 2, alone): 16.00 µg/mL; MIC (K. pneumoniae 4106; Table 3, alone): >32 µg/mL; MIC (K. pneumoniae 4109; alone): 2.00 µg/mL; MIC (E. cloacae 2704; alone): 16.00 µg/mL; MIC (S. pneumoniae 2493; alone): 16.00 µg/mL; MIC (K. pneumoniae 2713; alone): >32 µg/mL; MIC (E. cloacae 551; alone): 16.00 µg/mL"
"CC(C)(O/N=C(\C(=O)N[C@@H]1C(=O)N2C(C(=O)[O-])=C(C[n+]3ccc4c(ccn4Cc4ccc(C(=N)N)cc4)c3)CS[C@H]12)c1csc(N)n1)C(=O)O [Ex-1, (6R,7R)-7-{[(2Z)-2-(2-Amino-1,3-thiazol-4-yl)-2-{[(2-carboxypropan-2-yl)oxy]imino}acetyl]-amino}-3-{[1-(4-carbamimidoylbenzyl)-1H-pyrrolo[3,2-c]pyridin-5-ium-5-yl]methyl}-8-oxo-5-thia-1-azabicyclo[4.2.0]oct-2-ene-2-carboxylate]",,,,,,,,,,,,,,,,2,2,0.12,≤ 0.06,0.25,MIC (E. coli 102; [7]): ≤ 0.06 µg/mL; MIC (E. cloacae 2709; [6]): 32 µg/mL; MIC (K. pneumoniae 4106; [8]): 8 µg/mL; MIC (K. pneumoniae 4106; [9]): 32 µg/mL; MIC (K. pneumoniae 4109; [10]): 2 µg/mL; MIC (E. cloacae 2704; [6]): 16 µg/mL; MIC (S. pneumoniae 2493; [5]): 4 µg/mL; MIC (K. pneumoniae 2713; [10]): > 32 µg/mL; MIC (E. cloacae 551; [6]): 32 µg/mL
"CC(C)(O/N=C(\C(=O)N[C@@H]1C(=O)N2C(C(=O)[O-])=C(C[n+]3ccc4n3CCN4Cc3ccc(C(=N)N)cc3)CS[C@H]12)c1csc(N)n1)C(=O)O [Example 2, (6R,7R)-7-{[(2Z)-2-(2-Amino-1,3-thiazol-4-yl)-2-{[(2-carboxypropan-2-yl)oxy]imino}acetyl]amino}-3-{[1-(4-carbamimidoylbenzyl)-2,3-dihydro-1H-imidazo[1,2-b]pyrazol-5-ium-5-yl]methyl}-8-oxo-5-thia-1-azabicyclo[4.2.0]oct-2-ene-2-carboxylate]",8.00,8.00,0.12,2.00,≤0.06,0.12,≤0.06,4,2.00,4,0.12,1.00,8.00,2,1.00,8,8,0.12,≤ 0.06,0.25,"MIC (S. aureus 3132; Staphylococcus aureus, alone, read-out: MIC): 2 µg/mL; MIC (E. coli 102; [7]): ≤ 0.06 µg/mL; MIC (E. cloacae 2709; [6]): 16 µg/mL; MIC (K. pneumoniae 4106; [8]): 8 µg/mL; MIC (K. pneumoniae 4106; [9]): > 32 µg/mL; MIC (K. pneumoniae 4109; [10]): 0.5 µg/mL; MIC (E. cloacae 2704; [6]): 4 µg/mL; MIC (S. pneumoniae 2493; [5]): 8 µg/mL; MIC (K. pneumoniae 2713; [10]): > 32 µg/mL; MIC (E. cloacae 551; [6]): 8 µg/mL"
